The test system of assay [1] is replay rivalry criterion and response latency. Briefly: Rivalry replay control (criterion for mixed percept and response latency). In kind it is in vivo, human. The following applies: donepezil 5 mg oral vs placebo; F(1,22)=1.4. The source says:
To ensure any treatment effects were the result of changes in visual neural activity as opposed to changes in motor or executive function, a rivalry replay control experiment was implemented where participants watched computer-generated videos of simulated binocular rivalry, presented identically to both eyes. […] See FIG. 2 for additional details regarding the plots.
Rivalry replay control. A rivalry replay control condition was used to characterize the criterion for categorizing a percept as mixed and to quantify the latency of binocular rivalry responses (Robertson et al., 2013, 2016). The replay control consisted of computer-generated videos presented binocularly, where the stimulus was oscillated from left-oriented gratings to right-oriented gratings along a continuous scale, such that the midpoint of this oscillation would produce a complete mixture of the two gratings. […]
In addition, the overall rate of rivalry, defined as the total number of switches between the exclusive percepts divided by the run duration (Robertson et al., 2013, 2016) was extracted. In order to quantify the magnitude of the effect of the two treatment conditions relative to baseline, mean posttreatment values were divided by the mean baseline values to obtain post/pre ratios for each dependent variable across both experimental conditions. […]

A further assay deals with visual function. The note with it: cited from earlier work.
The subject of assay [2] is binocular rivalry dynamics. Briefly: Binocular rivalry task, double-blind placebo-controlled crossover, before and 3 h after donepezil or placebo. In kind it is in vivo, human. The source says:
The binocular rivalry task consisted of a dichoptic stimulus where participants viewed a left-tilted grating in one eye and a right-tilted grating in the other for 90 s, continuously indicating via key-press whether they were seeing (1) the left eye's image, (2) the right eye's image, (3) a piecemeal mixture of the two images, or (4) a superimposed mixture of the two images (FIG. 1). This task was used to better characterize the mixed percepts while also encouraging participants not to miscategorize a mixed percept as exclusive.
Binocular rivalry task. A previously developed (Skerswetat et al., 2018) binocular rivalry task was adapted to quantify the fractions and median durations of exclusive, piecemeal, superimposition, and overall mixed percepts (for illustrations, see FIG. 1B). At the beginning of each session, participants were shown images on a document that illustrated the differences between the left-oriented, right-oriented, and superimposition versus piecemeal mixed percepts. Participants were told that they would see a dynamic stimulus during the experiment and that their task was to track what they were seeing, with particular attention to timeliness and accuracy.
Participants were given the option to continuously indicate whether they were seeing either (1) an exclusively left-tilted grating, (2) an exclusively right-tilted grating, (3) a superimposition mixed percept, or (4) a piecemeal mixed percept. Participants used three adjacent keys for the task, using the left to indicate exclusive left-tilt, right for right-tilt, a holding down a combination of the left and right keys for the piecemeal percepts, and the middle key for the superimposition percepts. It was specified that the criterion for exclusive percepts should be ˜90% left or right oriented.
Experimental design and statistical analysis. […] Group assignment was counterbalanced across participants to control for possible session-order effects. The experimenter was not aware of the treatment condition of the two group assignments until after data collection was complete. For safety purposes, the experimenter recorded the participant's systolic blood pressure at baseline and monitored blood pressure levels throughout the experiment.
The general protocol of each experimental block is outlined in FIG. 1A. Each block consisted of two binocular rivalry runs followed by two rivalry replay runs, each lasting 90 s.
Each run (rivalry and replay) began with a dichoptic nonius cross presented inside a 3° oval surrounded by a black-and-white noise (1 cycle/degree) frame (side=10°). The observer was asked to make keypresses to adjust the position of the two frames to calibrate the optimal position for comfortable fusion. After confirmation, the participant was instructed to fixate at a fixation dot (0.2°) and place their hands on the appropriate keys to begin responding to the rivalry task. After a keypress, the dichoptic stimulus appeared and participants began responding to what they were observing on the monitor using the keypress instructions provided at the beginning of each session. Subsequent runs were initiated after a brief break where subjects viewed a mean-gray background screen. […] During the incubation period, subjects were instructed to keep both eyes open and do normal activities such as watching a movie or doing computer work in a well-lit room.
Baseline and posttreatment measurements were drawn from four experimental blocks. A mandatory 2-min break was implemented between each experimental block to prevent fatigue.

Entries after “also recorded” stand apart in the source; their conditions may differ.

`COc1cc2c(cc1OC)C(=O)C(CC1CCN(Cc3ccccc3)CC1)C2` (stereo not drawn) [donepezil]: the “effect on criterion and response latency in rivalry replay control (MANOVA)” value in assay [1] was “no observable differences; also recorded: not significant”. Also, the “effect on monocular visual function using perceptual learning” value in the assay on visual function (Chung et al., 2017) is “not useful to improve monocular visual function”. In the assay on visual function (Sheynin et al., 2019), the “effect on perceptual eye dominance changes from short term patching of one eye” value is recorded as “impede perceptual eye dominance changes”. The “overall effect on binocular rivalry dynamics (repeated measures MANOVA of post/pre values)” value in assay [2] (donepezil 5 mg oral vs placebo, F(1,22)=2.68, p=0.04) is reported as “significantly altered binocular rivalry dynamics”. Also, the “participants with increases in the fraction of mixed visibility” value in assay [2] (donepezil 5 mg oral, 3 h, 23 participants) was 19 out of 23. Besides, in assay [2] (donepezil 5 mg oral, 3 h, of the 19 participants with increases), the “individuals exhibiting donepezil-induced increases of 0.50% in fraction of mixed visibility” value was “eight”. Further, in assay [2] (po, 5 mg, 3 h), the “decrease of rate of binocular rivalry” value is listed as 36%, the “enhancement of fraction of aggregate mixed visibility during rivalry” value is reported as 43%, the “enhancement of fraction visibility of superimposition percepts” value was 70% and the “increase of median duration of mixed visibility” value is listed as 20%. For the same molecule, in assay [2] (po, 5 mg, 3 h), the “increase of median duration of piecemeal percepts” value worked out at 49%, the “increase of median duration of superimposition percepts” value was found to be 54%, the “reduction of fraction of exclusive percepts” value is listed as 59% and the “reduction of fraction of piecemeal percepts” value was 15%. The “reduction of median duration of exclusive percepts” value in assay [2] (po, 5 mg, 3 h) came to 78%.
